For experiment [1], the system named is Plasmodium falciparum. In words: Antimalarial activity against chloroquine-sensitive Plasmodium falciparum D10 after 72 hrs by lactate dehydrogenase assay. Type of experiment: functional.
Experiment [2] relates to Plasmodium falciparum. In words: Antimalarial activity against chloroquine-resistant Plasmodium falciparum W2 after 72 hrs by lactate dehydrogenase assay. Conditions: W2, 72 h; call rule not given here. In kind it is functional, organism-based.
The mark [3] stands for this setting: Plasmodium falciparum, D10, 72 h, read-out: IC50.

Take `CC/C=C/[C@H](CC)C[C@]1(CC)C=C(CC)[C@H](CC(=O)OC)OO1`: the IC50 in the experiment on Plasmodium falciparum [1] (setting [3]) stood at 3.89 µM; in the experiment with Plasmodium falciparum [2] it was 2.91 µM.

`CCCC[C@H](CC)C[C@]1(CC)C=C(CC)[C@H](CC(=O)OC)OO1`: the IC50 with Plasmodium falciparum [1] (setting [3]) came to 4.05 µM; in the experiment with Plasmodium falciparum [2], 2.7 µM.

In the case of `CCCC[C@H](C)C[C@]1(CC)C=C(CC)[C@H](CC(=O)OC)OO1`, the IC50 worked out at 1.77 µM in the experiment on Plasmodium falciparum [1] (setting [3]) and 1.56 µM in the experiment on Plasmodium falciparum [2]. Take `CCCC[C@H](CC)C[C@@]1(CC)C[C@H](CC)[C@H](CC(=O)OC)OO1`: the figures for the IC50 with Plasmodium falciparum [1] (setting [3]) and in the experiment with Plasmodium falciparum [2] were 6.18 µM and 4.98 µM, respectively. As to `CCCC[C@H](CC)C[C@@]1(CC)C[C@H](CC)[C@@H](CC(=O)OC)OO1`, the results for the IC50 result in the experiment with Plasmodium falciparum [1] and in the experiment on Plasmodium falciparum [2] were “Not Active” and 11.4 µM, respectively.

As for `CCCCC(C)C[C@H](CC)C[C@@]1(C)C[C@H](CC)[C@@H](CC(=O)OC)OO1` (stereo not given in full), the IC50 was determined as 5.12 µM with Plasmodium falciparum [1] (setting [3]) and 4.1 µM in the experiment with Plasmodium falciparum [2]. For `CCCC[C@H](CC)C[C@@]1(C)C[C@@H](CC)[C@@H](CC(=O)OC)OO1`, the IC50 in the experiment on Plasmodium falciparum [1] (setting [3]) came out at 0.9 µM; with Plasmodium falciparum [2], 0.43 µM. The compound `C[C@@H]1CC[C@H]2[C@@H](C)C(=O)O[C@@H]3O[C@@]4(C)CC[C@@H]1[C@]32OO4` [ARTEMISININ] registered an IC50 in the experiment on Plasmodium falciparum [2] of 0.009 µM.

Values taken from ChEMBL document CHEMBL3352710, “Endoperoxide polyketides from a Chinese Plakortis simplex: further evidence of the impact of stereochemistry on antimalarial activity of simple 1,2-dioxanes” (Bioorg Med Chem, 2014).
